Values after ≈ are worked out from the molar mass of the structure shown. Like-named read-outs stand apart in the source and are kept apart here.
Tests used:
E. coli (ATCC 25922) = test: Antibacterial MIC, broth microdilution; format: cell-based, Escherichia coli; conditions: read-out: MIC (µM) E. coli
Protocol: (§1) The serial dilution technique was utilized to evaluate the antimicrobial activity of synthesized derivatives against Gram-negative, Gram-positive, and fungal strains. […] To dissolve the reference and sample derivatives, DMSO was employed as a solvent. The synthesized compounds were evaluated for their antibacterial effectiveness against E. coli, P. aeruginosa, and S. aureus, and their antifungal potential was tested against Candida albicans and Aspergillus niger.
(§2) The antibacterial and antifungal activity of potential synthesized compounds was evaluated using the broth microdilution method to determine their minimum inhibitory concentration (MIC). […] Individual MIC (µM) values were determined using serial dilution technique with Mueller–Hinton Broth (MHB) media for bacterial growth and Roswell Park Memorial Institute (RPMI) media for fungal growth. […] The turbidity of the spore suspension was corrected to 0.5 McFarland by adding distilled water. Stock solutions of synthesized compounds were prepared in DMSO solvent and serially diluted to determine the MIC value. Each spore (0.1 mL) was put into each well holding the finally serially diluted synthesized compound concentration, standards, and controls. […] Agar plate spotting was carried out for each spore and incubated for 24 h at 37 ± 1 °C (for bacteria spores), 48 h at 37 ± 1 °C (for C. albicans), and 7 days at 25 ± 1 °C (for A. niger) to determine CFU. To assess reproducibility, duplicate tests were performed on three separate days.

[1] = tested on: S. aureus (ATCC FDA209-P); test: Antibacterial MIC, broth microdilution; format: cell-based, Staphylococcus aureus; conditions: read-out: MIC (µM) S. aureus
Protocol: as §1, §2

A. niger (MTCC 1688) = test: Antifungal MIC, broth microdilution; format: cell-based, Aspergillus niger; conditions: for MIC: read-out: MIC (µM) A. niger
Protocol: as §1, §2

[2] = tested on: MCF-7 breast cancer cell line; test: Anticancer activity (MTT assay); format: cell-based; conditions: Homo sapiens
Protocol: The anticancer potential of synthesized derivatives was assessed by targeting the MCF-7 breast cancer cell line.
The potential newly synthesized derivatives were evaluated for their cytotoxic activity on the MCF-7 cell line (sourced from NCCS in Pune, India) using the MTT (3-[4,5-dimethylthiazol-2-yl]-2,5-diphenyl tetrazolium bromide) assay. To perform the assay, 10,000 cells were placed in each well of 96-well plates and left to incubate for 24 h in Dulbecco’s Modified Eagle Medium (DMEM). The medium was supplemented with 1% antibiotic solution and 10% FBS (fetal bovine serum), and the incubation occurred at a temperature of 37 °C in an environment containing 5% CO2. […] The cultures were then subjected to additional 2 h incubation. Upon concluding the experiment, the culture supernatant was extracted, and the cellular matrix was dissolved in 100 µL of DMSO. The absorbance of the resulting solution underwent evaluation using an ELISA plate reader (iMark, Biorad, Hercules, CA, USA) at 540 nm. Triplicate measurements were performed to enhance the reliability and reproducibility of the results obtained.

[3] = tested on: C. albicans (ATCC SC5314); test: Antifungal MIC, broth microdilution; format: cell-based, Candida albicans; conditions: for MIC: read-out: MIC (µM) C. albicans
Protocol: as §1, §2

[4] = tested on: P. aeruginosa (ATCC 27853); test: Antibacterial MIC, broth microdilution; format: cell-based, Pseudomonas aeruginosa; conditions: read-out: MIC (µM) P. aeruginosa
Protocol: as §1, §2

DHFR = target: T1, DHFR (Homo sapiens, UniProt P00374); test: In vitro DHFR inhibition assay (DHFR assay kit CS0340, spectrophotometric, 340 nm); format: biochemical
T1 construct: purchased Sigma-Aldrich CS0340
T1 sequence (P00374 1-187): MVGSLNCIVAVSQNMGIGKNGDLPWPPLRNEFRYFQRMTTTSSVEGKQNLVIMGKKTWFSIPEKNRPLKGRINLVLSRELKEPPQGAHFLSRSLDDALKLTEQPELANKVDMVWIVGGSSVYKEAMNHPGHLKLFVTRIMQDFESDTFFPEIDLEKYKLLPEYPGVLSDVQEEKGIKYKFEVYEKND
Protocol: This assessment was carried out using the DHFR assay kit (catalog number CS0340, Sigma-Aldrich, Burlington, MA, USA) by using a spectrophotometric method. The enzymatic […] of dihydrofolic acid to tetrahydrofolic acid was monitored at 340 nm for 180 s, following the procedure recommended by the manufacturer of the assay kit. […] To evaluate the ability of the synthesized derivatives to block DHFR activity, a spectrophotometric assay technique was utilized at 340 nm for 180 seconds to detect the enzyme-catalyzed conversion of dihydrofolic acid to tetrahydrofolic acid. The DHFR assay kit (Sigma-Aldrich, catalog number CS0340) was used in this assay. The kit was tested using recombinant DHFR, NIH 3T3, A431, and CHO cell lines, as well as rat kidney, brain, liver, and muscle tissue extracts. Dihydrofolic acid, NADPH, standard drug solution, assay buffer, and DHFR stock solutions were prepared according to the instructions given in the technical bulletin that came along with the test kit. Except for the assay buffer, all stock solutions were stored on ice.
Each well of a 96-well clear microplate was filled with a calculated amount of assay buffer (190 μL), followed by 6 μL of diluted DHFR, which was thoroughly mixed. […] The microplate was then covered with parafilm, and the contents were mixed by inversion. Following the addition of 1 μL of substrate dihydrofolic acid, the absorbance was measured at 340 nm over a period of 180 s using an ELISA reader (Gen BioTek Microplate Reader, Winooski, VT, USA) in kinetic mode at room temperature. Plotting the relationship between absorbance and time generates the slope for each test inhibitor sample. The relative inhibition percentages were calculated using Equation (1). % relative inhibition = (slope of [EC] − slope of [S]/slope of [EC]) × 100(1) where S is the sample of interest, EC (enzyme control).

[5] = MCF7, 24 h, read-out: Anticancer IC50 (µM), n = 3
[6] = Escherichia coli, ATCC25922, MHB, 37 °C, 24 h
[7] = Staphylococcus aureus, FDA209, MHB, 37 °C, 24 h
[8] = Candida albicans, SC5314, RPMI, 37 °C, 48 h
[9] = Pseudomonas aeruginosa, ATCC27853, MHB, 37 °C, 24 h
[10] = MCF7, read-out: Anticancer IC50 (µM), n = 3, MCF-7, MTT, 24 h
[11] = Aspergillus niger, MTCC1688, 168 h, RPMI, 25 °C, 7 days
[12] = read-out: DHFR Inhibition IC50 (µM) ± SD, n = 3, 180 s

Row | Compound | MIC (E. coli (ATCC 25922); [6]) [µM] | MIC [1, 7] [µM] | MIC [3, 8] [µM] | MIC [4, 9] [µM] | MIC (A. niger (MTCC 1688); [11]) [µM] | other results
1 | O=[N+]([O-])c1ccccc1C=Nn1c(S)nnc1C=Cc1ccc(O)c(O)c1 [CTh6, 4-(2-(4-(2-nitrobenzylideneamino)-5-mercapto-4H-1,2,4-triazol-3-yl)vinyl)benzene-1,2-diol] |  |  |  |  |  | MIC (E. coli (ATCC 25922); Escherichia coli, ATCC25922, 24 h): 20 µM (≈ 7.67 µg/mL); MIC ([1]; Staphylococcus aureus, FDA209, 24 h): 10 µM (≈ 3.83 µg/mL); MIC (A. niger (MTCC 1688); Aspergillus niger, MTCC1688, 168 h): 83 µM (≈ 31.8 µg/mL); IC50 [2, 5]: 89.2 ± 4.17 µM; MIC ([3]; Candida albicans, SC5314, 48 h): 41 µM (≈ 15.7 µg/mL); MIC ([4]; Pseudomonas aeruginosa, ATCC27853, 24 h): 10 µM (≈ 3.83 µg/mL); IC50 (DHFR; 180 s): 10.5 ± 0.7 µM
2 | Oc1ccc(C=Nn2c(S)nnc2C=Cc2ccc(O)c(O)c2)cc1 [CTh4, 4-(2-(4-(4-hydroxylbenzylideneamino)-5-mercapto-4H-1,2,4-triazol-3-yl)vinyl)benzene-1,2-diol] | 5 (≈ 1.77 µg/mL) | 22 (≈ 7.8 µg/mL) | 11 (≈ 3.9 µg/mL) | 5 (≈ 1.77 µg/mL) |  | MIC (µM) A. niger (A. niger (MTCC 1688); RPMI, 25 °C, 7 days): -; IC50 [2, 5]: 122 ± 7.3 µM
3 | Oc1ccc(/C=C/c2nnc(S)n2/N=C/c2cc3ccccc3cc2O)cc1O [CTh7, 4-(2-(4-(4-naphthalen-2-ol)-5-mercapto-4H-1,2,4-triazol-3-yl)vinyl)benzene-1,2-diol] | 39 (≈ 15.8 µg/mL) | 19 (≈ 7.68 µg/mL) |  | 19 (≈ 7.68 µg/mL) |  | MIC (µM) A. niger (A. niger (MTCC 1688); RPMI, 25 °C, 7 days): -; IC50 [2, 10]: 8.53 ± 0.19 µM; MIC (µM) C. albicans ([3]; RPMI, 37 °C, 48 h): -; IC50 (DHFR; 180 s): 0.15 ± 0.02 µM
4 | CC1(C)S[C@@H]2[C@H](NC(=O)[C@H](N)c3ccccc3)C(=O)N2[C@H]1C(=O)O [Ampicillin, reference compound] | 11 (≈ 3.84 µg/mL) | 11 (≈ 3.84 µg/mL) |  | 22 (≈ 7.69 µg/mL) |  | 
5 | OC(Cn1cncn1)(Cn1cncn1)c1ccc(F)cc1F [Fluconazole, reference compound] |  |  | 0.81 (≈ 0.248 µg/mL) |  | 260 (≈ 79.7 µg/mL) | 
6 | CN(C)[C@@H]1C(O)=C(C(N)=O)C(=O)[C@@]2(O)C(O)=C3C(=O)c4c(O)cccc4[C@@](C)(O)[C@H]3C[C@@H]12 [Tetracycline, reference compound] | 36 (≈ 16 µg/mL) | 144 (≈ 64 µg/mL) |  | 36 (≈ 16 µg/mL) |  | 
7 | Nn1c(S)nnc1C=Cc1ccc(O)c(O)c1 [CTh] |  |  |  |  |  | MIC (E. coli (ATCC 25922); MHB, 37 °C, 24 h): 255 µM (≈ 63.8 µg/mL); MIC ([1]; MHB, 37 °C, 24 h): 63 µM (≈ 15.8 µg/mL); MIC (A. niger (MTCC 1688); RPMI, 25 °C, 7 days): 127 µM (≈ 31.8 µg/mL); MIC (µM) C. albicans ([3]; RPMI, 37 °C, 48 h): -; MIC ([4]; MHB, 37 °C, 24 h): 127 µM (≈ 31.8 µg/mL); IC50 (DHFR; [12]): 16.9 ± 1.2 µM
8 | COc1ccc(C=Nn2c(S)nnc2C=Cc2ccc(O)c(O)c2)cc1 [CTh1, 4-(2-(4-(4-methoxybenzylideneamino)-5-mercapto-4H-1,2,4-triazol-3-yl)vinyl)benzene-1,2-diol] | 86 (≈ 31.7 µg/mL) | 43 (≈ 15.8 µg/mL) | 173 (≈ 63.7 µg/mL) | 86 (≈ 31.7 µg/mL) |  | MIC (µM) A. niger (A. niger (MTCC 1688); RPMI, 25 °C, 7 days): -; IC50 [2, 10]: 148 ± 11.4 µM; IC50 (DHFR; 180 s): 17 ± 1.1 µM
9 | COc1cc(Cc2cnc(N)nc2N)cc(OC)c1OC [Trimethoprim, reference compound] | 31 (≈ 9 µg/mL) | 63 (≈ 18.3 µg/mL) | 255 (≈ 74 µg/mL) | 31 (≈ 9 µg/mL) | 127 (≈ 36.9 µg/mL) | 
10 | 4-(2-(4-((2,4-dichlorocyclohexa-1,5-dienyl)methyleneamino)-5-mercapto-4H-1,2,4-triazol-3-yl)vinyl)benzene-1,2-diol [CTh10] |  |  |  |  |  | MIC (E. coli (ATCC 25922); MHB, 37 °C, 24 h): 39 µM; MIC ([1]; MHB, 37 °C, 24 h): 19 µM; MIC (A. niger (MTCC 1688); RPMI, 25 °C, 7 days): 39 µM; MIC ([3]; RPMI, 37 °C, 48 h): 39 µM; MIC ([4]; MHB, 37 °C, 24 h): 39 µM; IC50 (DHFR; [12]): 11.3 ± 0.92 µM
11 | COc1cccc2c1C(=O)c1c(O)c3c(c(O)c1C2=O)C[C@@](O)(C(=O)CO)C[C@@H]3O[C@H]1C[C@H](N)[C@H](O)[C@H](C)O1 [doxorubicin, reference compound] |  |  |  |  |  | IC50 [2, 10]: 3.62 µM
12 | O=[N+]([O-])c1cccc(C=Nn2c(S)nnc2C=Cc2ccc(O)c(O)c2)c1 [CTh3, 4-(2-(4-(3-nitrobenzylideneamino)-5-mercapto-4H-1,2,4-triazol-3-yl)vinyl)benzene-1,2-diol] | 10 (≈ 3.83 µg/mL) | 5 (≈ 1.92 µg/mL) | 20 (≈ 7.67 µg/mL) | 10 (≈ 3.83 µg/mL) | 83 (≈ 31.8 µg/mL) | 
13 | C[C@@H](c1ncncc1F)[C@](O)(Cn1cncn1)c1ccc(F)cc1F [Voriconazole, reference compound] |  |  | 0.34 (≈ 0.119 µg/mL) |  | 5 (≈ 1.75 µg/mL) | 

Source: article PMC11200944, “Hybrid Caffeic Acid-Based DHFR Inhibitors as Novel Antimicrobial and Anticancer Agents” (Antibiotics, 2024)
